In the first assay the target is Cyclin-dependent kinase 2/cyclin A (Homo sapiens, UniProt P24941).
Description: Inhibition of Cyclin A-cyclin-dependent kinase 2
Usually IC50 stands for the concentration needed to halve the response being measured. A low value points to greater potency. The compound `CN1CCN(S(=O)(=O)c2ccc(-n3nc(C(N)=O)c4c3-c3cn[nH]c3CC4)cc2)CC1` came in with a half-inhibitory concentration (IC50) of more than 10000 nM.
Still for that read-out and setting: the result for `NC(=O)c1nn(-c2ccc(C3=NCC=N3)cc2)c2c1CCc1n[nH]cc1-2` reads 250 nM; that for `CCOC(=O)c1nn(-c2ccc(OC)cc2)c2c1CCc1[nH]ncc1-2`, 8100 nM.
Still for that read-out and setting: to `NC(=O)c1nn(-c2ccc(OC(F)(F)F)cc2)c2c1CCc1[nH]ncc1-2` belongs 510 nM.
Still for that read-out and setting: to `C=CCONC(=O)c1nn(-c2ccc(OC)cc2)c2c1CCc1[nH]ncc1-2` belongs 4500 nM; to `CCCCNS(=O)(=O)n1nc(C(N)=O)c2ccc3[nH]ncc3c21`, 2 nM.
As for `NC(=O)c1nn(-c2ccc(Cl)cc2)c2c1CCc1[nH]ncc1-2`, the 50% inhibitory concentration (IC50) is 160 nM.
The same measure, in the same setting: the result for `C=CCONC(=O)c1nn(S(=O)(=O)NCCCC)c2c1ccc1[nH]ncc12` reads 200 nM; that for `COc1ccc(-n2nc(C(=O)NN)c3ccc4[nH]ncc4c32)cc1`, 210 nM.
The same measure, in the same setting: to `CCCCNS(=O)(=O)n1nc(C(=O)NC)c2c1-c1c[nH]nc1CC2` belongs 600 nM; to `CC(C)CC1Cc2c[nH]nc2-c2c[nH]nc21` (configuration not stated), 87 nM; to `COc1ccc(-n2nc(C(=O)O)c3c2-c2cn[nH]c2CC3)cc1`, 2100 nM.
With `CN1CCN(S(=O)(=O)c2ccc(-n3nc(C(N)=O)c4ccc5[nH]ncc5c43)cc2)CC1`, inhibition was half-maximal at 150 nM (IC50).
Still for that read-out and setting: the result for `CS(=O)(=O)c1ccc(-n2nc(C(N)=O)c3c2-c2cn[nH]c2CC3)cc1` reads 30 nM; that for `NC(=O)c1nn(CCO)c2c1CCc1[nH]ncc1-2`, 1150 nM; that for `CCOC(=O)c1nn(-c2ccc(C)cc2)c2c1CCc1[nH]ncc1-2`, 8500 nM.
On the same count and under the same terms, to `CCOC(=O)c1nn(-c2ccc(OC)cc2)c2c1ccc1[nH]ncc12` belongs 7500 nM; to `CCCCNS(=O)(=O)c1ccc(-n2nc(C(=O)OCC)c3c2-c2cn[nH]c2CC3)cc1`, 10000 nM; to `COc1ccc(-n2nc(C(=O)O)c3ccc4[nH]ncc4c32)cc1`, 210 nM.
Same read-out and setting: the result for `N#Cc1ccc(-n2nc(C(N)=O)c3c2-c2cn[nH]c2CC3)cc1` reads 190 nM; that for `CCCCNS(=O)(=O)n1nc(C(=O)O)c2c1-c1c[nH]nc1CC2`, 1200 nM.
`CCCCNS(=O)(=O)n1nc(C(=O)NC)c2ccc3[nH]ncc3c21` yielded an IC50 of 610 nM.
`CNS(=O)(=O)c1ccc(-n2nc(C(N)=O)c3c2-c2cn[nH]c2CC3)cc1`: the IC50 is 40 nM.
The same measure, in the same setting: to `Cc1cccc(-n2nc(C(N)=O)c3ccc4[nH]ncc4c32)c1` belongs 9 nM; to `NC(=O)c1nn(-c2ccc(C(F)(F)F)cc2)c2c1CCc1[nH]ncc1-2`, 80 nM.
Compound `NC(=O)c1nn(-c2cccnc2)c2c1CCc1[nH]ncc1-2` returned an IC50 of 1600 nM.
Same read-out and setting: to `COc1ccc(-n2nc(C#N)c3ccc4[nH]ncc4c32)cc1` belongs 1750 nM.
`COc1ccc(-n2nc(N)c3ccc4[nH]ncc4c32)cc1` returned an IC50 of more than 10000 nM.
Same read-out and setting: the result for `CCCCNS(=O)(=O)n1nc(C(N)=O)c2c1-c1c[nH]nc1CC2` reads 210 nM; that for `CNS(=O)(=O)c1ccc(-n2nc(C(N)=O)c3ccc4[nH]ncc4c32)cc1`, 20 nM; that for `CC(=O)c1nn(-c2ccc(C)cc2)c2c1CCc1[nH]ncc1-2`, 900 nM.
The same measure, in the same setting: to `C=CCONC(=O)c1nn(S(=O)(=O)NCCCC)c2c1CCc1n[nH]cc1-2` belongs 2850 nM.
In turn, `NC(=O)c1nn(-c2ccc(C3=NCC=N3)cc2)c2c1ccc1[nH]ncc12` registered a half-inhibitory concentration (IC50) of 75 nM.
On the same count and under the same terms, to `COc1ccc(-n2nc(C(=O)NN)c3c2-c2cn[nH]c2CC3)cc1` belongs 2100 nM.

Molecular target in a further assay: not listed separately
Put plainly: Inhibition of Glycogen synthase kinase-3 beta.
Regarding `Cc1ccc(-n2nc(C(N)=O)c3c2-c2c[nH]nc2CC3)cc1`, the IC50 stood at 460 nM.
Still for that read-out and setting: to `CC(C)CC1Cc2c[nH]nc2-c2c[nH]nc21` (configuration not stated) belongs more than 10000 nM; to `Cc1ccc(-n2nc(C(N)=O)c3ccc4[nH]ncc4c32)cc1`, 23 nM.
